This assay has as its target PARP7 (Homo sapiens (Human), UniProt Q7Z3E1). Briefly: Enzymatic assay for inhibition of PARP7: TR-FRET displacement of biotinylated Probe A from the TIPARP active site. The class given is binding. As to conditions: Table A-1. The gist of the method: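 Percent inhibition derives from the ratio of 665 to 615 nm emission, which reports how much Probe A remains bound to TIPARP. Plates sat 30 min at 25° C before the time-resolved read (320 nm excitation).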
In general terms: TR-FRET usually uses a lanthanide donor and a delayed reading to cut background.

A word on the IC50: it is the concentration at which inhibition is half-maximal. A lower IC50 goes with higher potency.

Chain of PARP7 (Q7Z3E1 whole entry): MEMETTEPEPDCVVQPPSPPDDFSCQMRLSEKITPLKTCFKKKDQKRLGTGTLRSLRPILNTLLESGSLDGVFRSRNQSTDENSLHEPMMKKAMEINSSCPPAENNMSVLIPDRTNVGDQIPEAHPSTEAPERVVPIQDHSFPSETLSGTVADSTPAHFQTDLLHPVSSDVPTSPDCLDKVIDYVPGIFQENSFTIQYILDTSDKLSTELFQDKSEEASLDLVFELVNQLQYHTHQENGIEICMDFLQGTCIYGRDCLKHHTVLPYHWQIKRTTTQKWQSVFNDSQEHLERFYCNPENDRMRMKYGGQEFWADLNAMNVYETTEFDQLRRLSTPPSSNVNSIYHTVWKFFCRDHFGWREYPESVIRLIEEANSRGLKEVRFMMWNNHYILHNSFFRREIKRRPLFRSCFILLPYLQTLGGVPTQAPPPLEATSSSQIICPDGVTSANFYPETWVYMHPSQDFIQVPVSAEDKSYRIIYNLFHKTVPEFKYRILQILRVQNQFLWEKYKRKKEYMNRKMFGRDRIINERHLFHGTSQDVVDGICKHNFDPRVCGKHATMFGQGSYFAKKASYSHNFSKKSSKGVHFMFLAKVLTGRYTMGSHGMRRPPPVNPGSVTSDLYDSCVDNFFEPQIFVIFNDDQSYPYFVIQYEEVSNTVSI

For the compound `O=c1[nH]ncc(N2Cc3ccc(OC4CCNCC4)cc3C2)c1Cl` [Example 158, 4-Chloro-5-(5-(piperidin-4-yloxy)isoindolin-2-yl)pyridazin-3(2H)-one], the IC50 lay within 100 to 1000 nM.
The value for `Cc1c(N2Cc3ccccc3C2)cn[nH]c1=O` [Example 159, 5-(Isoindolin-2-yl)-4-methylpyridazin-3(2H)-one] was ≥ 1000 nM.
For the compound `O=c1[nH]ncc(N2Cc3ccccc3C2)c1C(F)(F)F` [Example 160, 5-(Isoindolin-2-yl)-4-(trifluoromethyl)pyridazin-3(2H)-one], the half-maximal inhibitory concentration (IC50) is < 100 nM.
`O=c1[nH]ncc(N2Cc3cccc(OCCO)c3C2)c1Cl` [Example 161, 4-Chloro-5-(4-(2-hydroxyethoxy)isoindolin-2-yl)pyridazin-3(2H)-one]: the half-maximal inhibitory concentration (IC50) lay within 100 to 1000 nM.
Compound `COCCOc1cccc2c1CN(c1cn[nH]c(=O)c1Cl)C2` [Example 162, 4-Chloro-5-(4-(2-methoxyethoxy)isoindolin-2-yl)pyridazin-3(2H)-one] returned an IC50 of 100 to 1000 nM.
For `NCCOc1cccc2c1CN(c1cn[nH]c(=O)c1Cl)C2` [Example 163, 5-(4-(2-Aminoethoxy)isoindolin-2-yl)-4-chloropyridazin-3(2H)-one], the IC50 was ≥ 1000 nM.
For the compound `COc1cccc2c1CN(c1cn[nH]c(=O)c1C(F)(F)F)C2` [Example 164, 5-(4-Methoxyisoindolin-2-yl)-4-(trifluoromethyl)pyridazin-3(2H)-one], the IC50 is < 100 nM.
As for `O=c1[nH]ncc(N2Cc3cccc(OC4CCNCC4)c3C2)c1Cl` [Example 165, 4-Chloro-5-(4-(piperidin-4-yloxy)isoindolin-2-yl)pyridazin-3(2H)-one], the figure is ≥ 1000 nM.
`CN(C)CCOc1cccc2c1CN(c1cn[nH]c(=O)c1Cl)C2` [Example 166, 4-Chloro-5-(4-(2-(dimethylamino)ethoxy)isoindolin-2-yl)pyridazin-3(2H)-one]: the concentration for half-maximal inhibition (IC50) is ≥ 1000 nM.
Regarding `COc1cccc2c1CN(c1cn[nH]c(=O)c1C)C2` [Example 167, 5-(4-Methoxyisoindolin-2-yl)-4-methylpyridazin-3(2H)-one], the 50% inhibitory concentration (IC50) was in the range of 100 to 1000 nM.
`O=c1[nH]ncc(N2Cc3cccc(OCCO)c3C2)c1Br` [Example 168, 4-Bromo-5-(4-(2-hydroxyethoxy)isoindolin-2-yl)pyridazin-3(2H)-one] displayed an IC50 of 100 to 1000 nM.
With `O=c1[nH]ncc(N2Cc3ccc(F)cc3C2)c1C(F)(F)F` [Example 169, 5-(5-Fluoroisoindolin-2-yl)-4-(trifluoromethyl)pyridazin-3(2H)-one], the IC50 is < 100 nM.
Consider `O=c1[nH]ncc(N2Cc3cccc(OC4CCNCC4)c3C2)c1C(F)(F)F` [Example 170, 5-(4-(Piperidin-4-yloxy)isoindolin-2-yl)-4-(trifluoromethyl)pyridazin-3(2H)-one], for which the half-maximal inhibitory concentration (IC50) was < 100 nM.
Take `Cc1c(N2Cc3cccc(OCCO)c3C2)cn[nH]c1=O` [Example 171, 5-(4-(2-Hydroxyethoxy)isoindolin-2-yl)-4-methylpyridazin-3(2H)-one]: the IC50 is ≥ 1000 nM.
On to `O=c1[nH]ncc(N2Cc3cccc(OC4CCNCC4)c3C2)c1Br` [Example 172, 4-Bromo-5-(4-(piperidin-4-yloxy)isoindolin-2-yl)pyridazin-3(2H)-one], for which the IC50 lay within 100 to 1000 nM.
Consider `COc1ccc2c(c1)CN(c1cn[nH]c(=O)c1C)C2` [Example 173, 5-(5-Methoxyisoindolin-2-yl)-4-methylpyridazin-3(2H)-one], for which the half-maximal inhibitory concentration (IC50) lay in the range of 100 to 1000 nM.
Take `COc1ccc2c(c1)CN(c1cn[nH]c(=O)c1C(F)(F)F)C2` [Example 174, 5-(5-Methoxyisoindolin-2-yl)-4-(trifluoromethyl)pyridazin-3(2H)-one]: the IC50 is < 100 nM.
The value for `Cc1c(N2Cc3cccc(OC4CCNCC4)c3C2)cn[nH]c1=O` [Example 175, 4-Methyl-5-(4-(piperidin-4-yloxy)isoindolin-2-yl)pyridazin-3(2H)-one] was ≥ 1000 nM; that for `N#Cc1c(N2Cc3cccc(OCCO)c3C2)cn[nH]c1=O` [Example 176, 5-(4-(2-Hydroxyethoxy)isoindolin-2-yl)-3-oxo-2,3-dihydropyridazine-4-carbonitrile] was ≥ 1000 nM.
As for `O=c1[nH]ncc(N2Cc3ccc(OCCO)cc3C2)c1C(F)(F)F` [Example 177, 5-(5-(2-Hydroxyethoxy)isoindolin-2-yl)-4-(trifluoromethyl)pyridazin-3(2H)-one], the figure is < 100 nM; as for `CN(C)c1cccc2c1CN(c1cn[nH]c(=O)c1C(F)(F)F)C2` [Example 178, 5-(4-(Dimethylamino)isoindolin-2-yl)-4-(trifluoromethyl)pyridazin-3(2H)-one], < 100 nM; as for `CC(=O)Nc1cccc2c1CN(c1cn[nH]c(=O)c1C(F)(F)F)C2` [Example 179, N-(2-(6-Oxo-5-(trifluoromethyl)-1,6-dihydropyridazin-4-yl)isoindolin-4-yl)acetamide], 100 to 1000 nM.
For `O=c1[nH]ncc(N2Cc3cccc(F)c3C2)c1C(F)(F)F` [Example 180, 5-(4-Fluoroisoindolin-2-yl)-4-(trifluoromethyl)pyridazin-3(2H)-one], the half-inhibitory concentration (IC50) is < 100 nM.
For `O=c1[nH]ncc(N2Cc3cccc(OCCO)c3C2)c1C(F)(F)F` [Example 181, 5-(4-(2-Hydroxyethoxy)isoindolin-2-yl)-4-(trifluoromethyl)pyridazin-3(2H)-one], the half-inhibitory concentration (IC50) was < 100 nM.
Consider `N#Cc1c(N2Cc3cccc(OC4CCNCC4)c3C2)cn[nH]c1=O` [Example 182, 3-Oxo-5-(4-(piperidin-4-yloxy)isoindolin-2-yl)-2,3-dihydropyridazine-4-carbonitrile formic acid], for which the IC50 is ≥ 1000 nM.
In the case of `O=c1[nH]ncc(N2Cc3cccc(OC4CCNCC4)c3C2)c1C1CC1` [Example 183, 4-Cyclopropyl-5-(4-(piperidin-4-yloxy)isoindolin-2-yl)pyridazin-3(2H)-one formic acid], the half-inhibitory concentration (IC50) is ≥ 1000 nM.
On to `COc1c(N2Cc3cccc(OCCO)c3C2)cn[nH]c1=O` [Example 184, 5-(4-(2-Hydroxyethoxy)isoindolin-2-yl)-4-methoxypyridazin-3(2H)-one], for which the half-maximal inhibitory concentration (IC50) was ≥ 1000 nM.
With `CCc1c(N2Cc3cccc(OCCO)c3C2)cn[nH]c1=O` [Example 185, 4-Ethyl-5-(4-(2-hydroxyethoxy)isoindolin-2-yl)pyridazin-3(2H)-one], the IC50 is ≥ 1000 nM.
On to `O=c1[nH]ncc(N2Cc3cccc(OCCO)c3C2)c1C1CC1` [Example 186, 4-Cyclopropyl-5-(4-(2-hydroxyethoxy)isoindolin-2-yl)pyridazin-3(2H)-one], for which the 50% inhibitory concentration (IC50) was ≥ 1000 nM.
With `Cc1c(N2Cc3ccc(OC4CCNCC4)cc3C2)cn[nH]c1=O` [Example 187, 4-Methyl-5-(5-(piperidin-4-yloxy)isoindolin-2-yl)pyridazin-3(2H)-one], the 50% inhibitory concentration (IC50) is ≥ 1000 nM.
With `Cc1c(N2Cc3ccc(OCCO)cc3C2)cn[nH]c1=O` [Example 188, 5-(5-(2-Hydroxyethoxy)isoindolin-2-yl)-4-methylpyridazin-3(2H)-one], the concentration for half-maximal inhibition (IC50) is 100 to 1000 nM.
In turn, `CSc1c(N2Cc3ccccc3C2)cn[nH]c1=O` [Example 189, 5-(Isoindolin-2-yl)-4-(methylthio)pyridazin-3(2H)-one] yielded a half-maximal inhibitory concentration (IC50) of 100 to 1000 nM.
For `O=c1[nH]ncc(N2Cc3ccccc3C2CO)c1Cl` (stereo not shown) [Example 191, 4-Chloro-5-(1-(hydroxymethyl)isoindolin-2-yl)pyridazin-3(2H)-one], the IC50 is ≥ 1000 nM.
Take `CCOc1cccc2c1CN(c1cn[nH]c(=O)c1C(F)(F)F)C2` [Example 192, 5-(4-Ethoxyisoindolin-2-yl)-4-(trifluoromethyl)pyridazin-3(2H)-one]: the half-maximal inhibitory concentration (IC50) is < 100 nM.
Turning to `CC(C)Oc1cccc2c1CN(c1cn[nH]c(=O)c1C(F)(F)F)C2` [Example 193, 5-(4-Isopropoxyisoindolin-2-yl)-4-(trifluoromethyl)pyridazin-3(2H)-one], the half-inhibitory concentration (IC50) was < 100 nM.
The value for `O=c1[nH]ncc(N2Cc3cccc(OC4CCOCC4)c3C2)c1C(F)(F)F` [Example 194, 5-(4-((Tetrahydro-2H-pyran-4-yl)oxy)isoindolin-2-yl)-4-(trifluoromethyl)pyridazin-3(2H)-one] was < 100 nM; that for `O=c1[nH]ncc(N2Cc3cccc(Oc4ccncn4)c3C2)c1C(F)(F)F` [Example 195, 5-(4-(Pyrimidin-4-yloxy)isoindolin-2-yl)-4-(trifluoromethyl)pyridazin-3(2H)-one] was < 100 nM.
Take `O=c1[nH]ncc(N2Cc3cccc(OCc4ccncc4)c3C2)c1C(F)(F)F` [Example 196, 5-(4-(Pyridin-4-ylmethoxy)isoindolin-2-yl)-4-(trifluoromethyl)pyridazin-3(2H)-one]: the half-maximal inhibitory concentration (IC50) is < 100 nM.
As for `O=c1[nH]ncc(N2Cc3cccc(OCc4cccnc4)c3C2)c1C(F)(F)F` [Example 197, 5-(4-(Pyridin-3-ylmethoxy)isoindolin-2-yl)-4-(trifluoromethyl)pyridazin-3(2H)-one], the half-inhibitory concentration (IC50) is < 100 nM.
Consider `O=c1[nH]ncc(N2Cc3cccc(OCc4ccccn4)c3C2)c1C(F)(F)F` [Example 198, 5-(4-(Pyridin-2-ylmethoxy)isoindolin-2-yl)-4-(trifluoromethyl)pyridazin-3(2H)-one], for which the half-maximal inhibitory concentration (IC50) was < 100 nM.
The value for `O=c1[nH]ncc(N2Cc3cccc(OCC4CCCOC4)c3C2)c1C(F)(F)F` (stereo not shown) [Example 199, 5-(4-((Tetrahydro-2H-pyran-3-yl)methoxy)isoindolin-2-yl)-4-(trifluoromethyl)pyridazin-3(2H)-one] was < 100 nM.
Take `O=c1[nH]ncc(N2Cc3cccc(OCC4CCOC4)c3C2)c1C(F)(F)F` (stereo not shown) [Example 200, 5-(4-((Tetrahydrofuran-3-yl)methoxy)isoindolin-2-yl)-4-(trifluoromethyl)pyridazin-3(2H)-one]: the half-maximal inhibitory concentration (IC50) was < 100 nM.
On to `O=c1[nH]ncc(N2Cc3cccc(OCC4CCCO4)c3C2)c1C(F)(F)F` (stereo not shown) [Example 201, 5-(4-((Tetrahydrofuran-2-yl)methoxy)isoindolin-2-yl)-4-(trifluoromethyl)pyridazin-3(2H)-one], for which the IC50 is < 100 nM.
